Test results taken from publication PMC6454892 (Nature chemistry, 2018).

Tested on: A. baumannii
Assay: MIC screening against A. baumannii
Type: cell-based
Settings: tested separately, unconjugated

CN[C@H](CC(C)C)C(=O)N[C@H]1C(=O)N[C@@H](CC(N)=O)C(=O)N[C@H]2C(=O)N[C@H]3C(=O)N[C@H](C(=O)N[C@H](C(=O)O)c4cc(O)cc(O)c4-c4cc3ccc4O)[C@H](O)c3ccc(c(Cl)c3)Oc3cc2cc(c3O[C@@H]2O[C@H](CO)[C@@H](O)[C@H](O)[C@H]2O[C@H]2C[C@](C)(N)[C@H](O)[C@H](C)O2)Oc2ccc(cc2Cl)[C@H]1O [vancomycin]
efficacy against A. baumannii (in words): ineffective
